Target: Protein tyrosine phosphatase type IVA 3 (Homo sapiens, UniProt O75365)
Assay: PTP4A3 Enzymatic Assay

Protein tyrosine phosphatase type IVA 3, sequence (O75365 whole entry): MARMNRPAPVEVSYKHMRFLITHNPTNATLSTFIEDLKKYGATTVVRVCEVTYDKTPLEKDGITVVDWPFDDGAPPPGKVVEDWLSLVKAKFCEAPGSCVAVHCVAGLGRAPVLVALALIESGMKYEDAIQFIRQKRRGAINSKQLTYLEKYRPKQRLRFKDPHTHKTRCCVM

- IC50: 162 nM
SMILES: O=C1NC(=O)c2sc(-c3ccccc3)cc2C1=O [US12202839, Compound 15]
